In PMC8286840, “Identifying SARS-CoV-2 antiviral compounds by screening for small molecule inhibitors of Nsp3 papain-like protease” (Biochemical Journal, 2021):
Structures can show the parent of a compound that is named as a salt. Where two headings read alike, the source gives them in different places.

How the values were obtained:
[1] = biological target: T1, SARS-CoV-2 PLpro (nsp3 1564–1878) (Severe acute respiratory syndrome coronavirus 2, UniProt P0DTD1); test: biochemical; design: FRET-quenched peptide (Pro3) cleavage by PLpro, 10 min pre-incubation, slope over 20 min, normalised to no-compound control; settings: low concentration screen, read-out: % of control remaining
[2] = biological target: T1, SARS-CoV-2 PLpro (nsp3 1564–1878); test: biochemical; design: FRET-quenched peptide (Pro3) cleavage by PLpro, 10 min pre-incubation, slope over 20 min, normalised to no-compound control; settings: high concentration screen, read-out: % of control remaining

SMILES: O=c1c(O)c(-c2ccc(O)cc2O)oc2cc(O)cc(O)c12 [Morin hydrate]
- remaining activity at 1.25 µM ([1]; Well no.=5680): 99.9%
- remaining activity at 3.75 µM ([2]; Well no.=5680): 99.5%

SMILES: Cc1onc(-c2ccccc2)c1-c1ccc(S(N)(=O)=O)cc1 [Valdecoxib]
- remaining activity at 1.25 µM ([1]; Well no.=4694): 97.5%
- remaining activity at 3.75 µM ([2]; Well no.=4694): 95.9%

SMILES: CC(=O)OCC(=O)NCCCOc1cccc(CN2CCCCC2)c1 [Roxatidine acetate.HCl]
- remaining activity at 1.25 µM ([1]; Well no.=2235): 97.2%
- remaining activity at 3.75 µM ([2]; Well no.=2235): 101%

SMILES: C[N+]1(C)C2CC(OC(=O)[C@H](CO)c3ccccc3)CC1C1OC12 (single isomer, unassigned; (-)) [(-)-Scopolamine methyl nitrate]
- remaining activity at 1.25 µM ([1]; Well no.=1454): 93.9%
- remaining activity at 3.75 µM ([2]; Well no.=1454): 96.6%

SMILES: CC(=O)NCCCC(=O)O [4-Acetamidobutanoic acid]
- remaining activity at 1.25 µM ([1]; Well no.=6149): 110%
- remaining activity at 3.75 µM ([2]; Well no.=6149): 106%

SMILES: O=C(NCCS(=O)(=O)c1ccc(C(F)(F)F)cn1)c1ccc(Cl)cc1 [GSK3787]
- remaining activity at 1.25 µM ([1]; Well no.=5216): 91.7%
- remaining activity at 3.75 µM ([2]; Well no.=5216): 95.3%

SMILES: NS(=O)(=O)c1ccc(NC2=CC(=O)c3ccccc3C2=O)cc1 [ML329]
- remaining activity at 1.25 µM ([1]; Well no.=8264): 91.6%
- remaining activity at 3.75 µM ([2]; Well no.=8264): 90.3%

SMILES: CC(=O)C1=C(C)N(c2cccc(C(F)(F)F)c2)C(=O)N[C@@H]1c1ccc(C#N)nc1 [BAY-678]
- remaining activity at 1.25 µM ([1]; Well no.=7734): 97.9%
- remaining activity at 3.75 µM ([2]; Well no.=7734): 101%

SMILES: CC1(C)S[C@@H]2[C@H](NC(=O)[C@H](NC(=O)N3CCNC3=O)c3ccccc3)C(=O)N2[C@H]1C(=O)O [Azlocillin sodium salt]
- remaining activity at 1.25 µM ([1]; Well no.=5356): 98.5%
- remaining activity at 3.75 µM ([2]; Well no.=5356): 93.9%

SMILES: Cc1cccc(NC(=O)Nc2ccc(-c3csc4ncnc(N)c34)cc2)c1 [GDP366]
- remaining activity at 1.25 µM ([1]; Well no.=6976): 101%
- remaining activity at 3.75 µM ([2]; Well no.=6976): 99.1%

SMILES: CCN1CCC[C@H]1CNC(=O)c1c(OC)ccc(I)c1O [S(-)-IBZM]
- remaining activity at 1.25 µM ([1]; Well no.=875): 98.1%
- remaining activity at 3.75 µM ([2]; Well no.=875): 99.1%

SMILES: C[C@@H]1[C@H](O)[C@@H](C)/C=C/C=C/CC/C=C/C=C/C=C/C=C/[C@H](O[C@@H]2O[C@H](C)[C@@H](O)[C@H](N)[C@@H]2O)C[C@@H]2O[C@](O)(C[C@@H](O)[C@H](O)CC[C@@H](O)C[C@@H](O)C[C@@H](O)CC(=O)O[C@H]1C)C[C@H](O)[C@H]2C(=O)O [Nystatin]
- remaining activity at 1.25 µM ([1]; Well no.=2045): 97.9%
- remaining activity at 3.75 µM ([2]; Well no.=2045): 100%

SMILES: CC(C)C[C@H](NC(=O)[C@@H](Cc1c[nH]c2ccccc12)NC(=O)[C@H](Cc1ccc(O)cc1)NC(=O)[C@H](CO)NC(=O)[C@H](Cc1c[nH]c2ccccc12)NC(=O)[C@H](Cc1c[nH]cn1)NC(=O)[C@@H]1CCC(=O)N1)C(=O)N[C@@H](CCCNC(=N)N)C(=O)N1CCC[C@H]1C(=O)NCC(N)=O [Triptorelin]
- remaining activity at 1.25 µM ([1]; Well no.=1985): 100%
- remaining activity at 3.75 µM ([2]; Well no.=1985): 101%

SMILES: Cc1cn([C@H]2C=C[C@@H](CO)O2)c(=O)[nH]c1=O [2',3'-didehydro-3'-deoxythymidine]
- remaining activity at 1.25 µM ([1]; Well no.=445): 104%
- remaining activity at 3.75 µM ([2]; Well no.=445): 105%

SMILES: CC1(C)[C@@H](O[C@H]2O[C@H](C(=O)O)[C@@H](O)[C@H](O)[C@H]2O[C@@H]2O[C@H](C(=O)O)[C@@H](O)[C@H](O)[C@H]2O)CC[C@]2(C)[C@H]3C(=O)C=C4[C@@H]5C[C@@](C)(C(=O)O)CC[C@]5(C)CC[C@@]4(C)[C@]3(C)CC[C@@H]12 [Glycyrrhizic acid]
- remaining activity at 1.25 µM ([1]; Well no.=5196): 106%
- remaining activity at 3.75 µM ([2]; Well no.=5196): 93.8%

SMILES: CCN1CC(CCN2CCOCC2)C(c2ccccc2)(c2ccccc2)C1=O (stereo not drawn) [Doxapram HCl]
- remaining activity at 1.25 µM ([1]; Well no.=5120): 98.8%
- remaining activity at 3.75 µM ([2]; Well no.=5120): 96.1%

SMILES: CC(=O)Nc1nc(C)c(S(=O)(=O)Nc2ccc(C(O)(C(F)(F)F)C(F)(F)F)cc2)s1 [SR1001]
- remaining activity at 1.25 µM ([1]; Well no.=8467): 106%
- remaining activity at 3.75 µM ([2]; Well no.=5461): 111%
- remaining activity at 3.75 µM ([2]; Well no.=8467): 106%

SMILES: CC(C)[C@H](CO)Nc1nc(Nc2cc(N)cc(Cl)c2)c2ncn(C(C)C)c2n1 [Aminopurvalanol A - (2R)-2-[[6-[(3-Amino-5-chlorophenyl)amino]-9-(1-methylethyl)-9H-purin-2-yl]amino]-3-methyl-1-butanol]
- remaining activity at 1.25 µM ([1]; Well no.=2484): 101%
- remaining activity at 3.75 µM ([2]; Well no.=2484): 108%

SMILES: CCCN1CCCC[C@H]1C(=O)Nc1c(C)cccc1C [Ropivacaine HCl]
- remaining activity at 1.25 µM ([1]; Well no.=4698): 99%
- remaining activity at 3.75 µM ([2]; Well no.=4698): 96.6%

SMILES: N#CC(=C(/N)Sc1ccccc1N)/C(C#N)=C(\N)Sc1ccccc1N [U0126 - 1,4-Diamino-2,3-dicyano-1,4-bis[2-aminophenylthio]butadiene]
- remaining activity at 1.25 µM ([1]; Well no.=2346): 96.1%
- remaining activity at 3.75 µM ([2]; Well no.=2346): 96.8%

SMILES: Nc1ncnc2c1ncn2[C@@H]1O[C@H](COP(=O)(O)OP(=O)(O)OP(=O)(O)OP(=O)(O)OC[C@H]2O[C@@H](n3cnc4c(N)ncnc43)[C@H](O)[C@@H]2O)[C@@H](O)[C@H]1O [P1,P4-Di(adenosine-5')tetraphosphate triammonium]
- remaining activity at 1.25 µM ([1]; Well no.=731): 96.1%
- remaining activity at 3.75 µM ([2]; Well no.=731): 94.1%

SMILES: CN(C)c1nc(N(C)C)nc(N(C)C)n1 [Altretamine]
- remaining activity at 1.25 µM ([1]; Well no.=8): 96%
- remaining activity at 1.25 µM ([1]; Well no.=2081): 101%
- remaining activity at 3.75 µM ([2]; Well no.=8): 98.2%
- remaining activity at 3.75 µM ([2]; Well no.=2081): 101%

SMILES: CC(CN(C)C)CN1c2ccccc2Sc2ccc(C#N)cc21 (stereo not drawn) [Cyamemazine]
- remaining activity at 1.25 µM ([1]; Well no.=5789): 102%
- remaining activity at 3.75 µM ([2]; Well no.=5789): 105%

SMILES: c1cc(CN2CCCNCCNCCCNCC2)ccc1CN1CCCNCCNCCCNCC1 [Plerixafor]
- remaining activity at 1.25 µM ([1]; Well no.=6893): 101%
- remaining activity at 1.25 µM ([1]; Well no.=8356): 91.6%
- remaining activity at 1.25 µM ([1]; Well no.=8751): 98.3%
- remaining activity at 3.75 µM ([2]; Well no.=8356): 92.1%
- remaining activity at 3.75 µM ([2]; Well no.=8751): 99.2%

SMILES: CN(C)CCCN1c2ccccc2Sc2ccc(C(F)(F)F)cc21 [Triflupromazine (hydrochloride)]
- remaining activity at 1.25 µM ([1]; Well no.=6373): 105%
- remaining activity at 3.75 µM ([2]; Well no.=6373): 103%

SMILES: CC(C)OC(=O)OCOP(=O)(CO[C@H](C)Cn1cnc2c(N)ncnc21)OCOC(=O)OC(C)C [Tenofovir Disoproxil Fumarate]
- remaining activity at 1.25 µM ([1]; Well no.=4811): 97.8%
- remaining activity at 3.75 µM ([2]; Well no.=4811): 99.5%

SMILES: O=C1C(SCCO)=C(SCCO)C(=O)c2ccccc21 [NSC 95397]
- remaining activity at 1.25 µM ([1]; Well no.=5678): 92%
- remaining activity at 3.75 µM ([2]; Well no.=5678): 75.9%

SMILES: CO[C@H]1[C@H](O)[C@H](O[C@H]2CC[C@@]3(C=O)[C@H](CC[C@@H]4[C@@H]3CC[C@]3(C)[C@@H](C5=CC(=O)OC5)CC[C@]43O)C2)O[C@@H](C)[C@@H]1O [Peruvoside]
- remaining activity at 1.25 µM ([1]; Well no.=3687): 97.8%
- remaining activity at 3.75 µM ([2]; Well no.=3687): 102%

SMILES: COC(=O)[C@H]1[C@H]2C[C@H]3c4[nH]c5ccccc5c4CCN3C[C@H]2CC[C@@H]1O [Rauwolscine]
- remaining activity at 1.25 µM ([1]; Well no.=3128): 99%
- remaining activity at 3.75 µM ([2]; Well no.=3128): 99.4%

SMILES: CCCCCCCC/C=C\CCCCCCCC(=O)NCCc1ccc(O)c(O)c1 [Oleoyl dopamine]
- remaining activity at 1.25 µM ([1]; Well no.=4539): 95.5%
- remaining activity at 3.75 µM ([2]; Well no.=4539): 100%
